From patent US9790225B2, “4-amino-3-phenylamino-6-phenylpyrazolo[3,4-d]pyrimidine derivatives, their manufacture and their use as antiviral active substances” (Scandion Oncology A/S, priority 2011, dated 2017)
Read-outs that look alike come from different tables or passages of the source. One block for each compound: values may come before it.

Tests used:
[1] = test system: plasma protein; experiment: Plasma protein binding and release in vitro (ADMET); type: in vitro ADME; conditions: in vitro
Text: (§1) Objective: To investigate the Absorption, Distribution, Metabolism, Excretion and Toxicity (abbreviated as: ADMET) of OBR 5-340 in vitro, as well as in vitro tests on the plasma protein binding and the stability in the plasma and in liver microsomes. Tests: The In vitro tests performed with CRCV-340 as well as the data obtained are summarised in Table 2 in comparison with Ref. 2.

[2] = Plasma stability in vitro (ADMET); type: in vitro ADME
Text: as §1

[3] = Stability in liver microsomes in vitro (ADMET); type: in vitro ADME; conditions: in vitro
Text: as §1

[4] = Pharmacokinetics in mice, single per os application, HPLC of plasma; type: in vivo; conditions: mouse, plasma, po, mice, single intragastric 100 mg/kg; for AUC(0-t): read-out: AUC0-t (area under curve); for AUC(0-inf): read-out: AUC0-∞ (area under curve); for Cmax: read-out: Cmax (maximum concentration in the blood); for MRT: read-out: MRT (mean residence time); for half-life: read-out: T1/2 (half life) (converted); for Tmax: read-out: Tmax (time to reach the maximum concentration in the blood)
Procedure: Tests: Substance and reference substance were applied respectively once in a concentration of 100 mg/kg KG, in 0.5 ml of a 10% Cremophor solution per os to the mice, After 0.5, 1, 2, 3, 4, 5, 6 and 7 hrs serum was taken and by means of HPLC analysis the concentrations of CRCV-340, Ref-2 and Ref-3 determined in the plasma of the mice.
Using the substance concentrations in the blood plasma determined by HPLC the pharmacokinetic parameters of the substances were calculated using the computer program ESTRIP (Table 3).

[5] = Acute toxicity in mice after single peroral administration; type: in vivo
Procedure: Tests: The acute toxicity of the substance CRCV-340 was tested in mice 19.5-20.5 g in weight, which was administered per os 40, 60, 80 or 120 mg substance/mouse (per 5 mice per substance and concentration). This corresponds to a dose of approx. 2 g, 3 g, 4 g or 6 g per kilogramme body weight. The toxic effects observed in the result correlated to the substance dose administered.

[6] = test system: human rhinovirus serotypes (HRV); experiment: zpE (cytopathic effect) inhibitory test with HRV serotypes; type: cell-based; conditions: for IC50: Human rhinovirus sp.
Text: (§2) Objective: To determine the antiviral effective spectrum of CRCV-340 in respect of 50 different human rhinovirus serotypes and CVB3 patient isolates.
(§3) Tests: The 50 HRV serotypes and 20 clinical CVB3 isolates were reproduced in HeLa, HeLa Wis and/or LF cells, their titre determined and the serotype verified using sequencing. Accordingly zpE (zytopathic effect) inhibitory tests with the HRV or plaque-reductions tests with the CVB3 isolates were established. In the corresponding antiviral tests dose effect investigations with Ref-3 and CRCV-340 were carried out. Tables 5 and 6 give an overview of the mean 50% inhibitory concentrations.

[7] = test system: clinical CVB3 isolates; experiment: Plaque-reduction test with clinical CVB3 isolates; type: cell-based; conditions: for IC50: Enterovirus B, CVB3
Text: as §2, §3

[8] = in vivo; cited from earlier work
[9] = in vivo; cited from earlier work; remark: listed apart in the source
[10] = test system: CVB3 31-1-93; experiment: Mouse model of CVB3-induced chronic myocarditis; type: in vivo; conditions: CVB3 31-1-93-infected NMRI mice, 100 mg/kg once or twice a day over 7 days
Procedure: Investigations: The effect of CRCV-340 was investigated in the model of CVB 3-induced myocarditis in 8-week old male NMRI mice. In addition CVB3 31-1-93 or CVB3 H3-infected animals received once or twice a day 100 mg/kg of the substance in 50% or 20% PEG-400 in 1% CMC in water (placebo) administered over 7 days. Parameters to evaluate the therapeutic effect included changes in body weight, general condition, virus titre in heart and pancreas tissue as well as histopathological changes in the heart and pancreas. Pseudo-infected, placebo-treated or CRCV-340-treated animals served as a negative control and infected, placebo- or pleconaril-treated animals as a positive control over the course of the infection.

[11] = test system: CVB3 31-1-93; experiment: Lethal mouse model of CVB3-induced myocarditis; type: in vivo; conditions: CVB3 31-1-93-infected BALB/c mice, 100 mg/kg twice a day over 7 days
Procedure: Investigations: The effect of the development candidate CRCV-340 was examined following testing of the infection dose in the model of the CVB 3-induced myocarditis in 6-7 weeks old male BALB/c mice. In addition CVB3 31-1-93 or CVB3 H3-infected animals received twice a day 100 mg/kg of the substance in 20% PEG-400 in 1% CMC in water (placebo) administered over 7 days. Changes in body weight, general condition and the lethality defined through the surrogate marker 25% loss of body weight served as parameters to evaluate the therapeutic effect. Pseudo-infected, placebo-treated or CRCV-340-treated animals represented the negative control and infected, placebo- or pleconaril-treated animals the positive control over the course of the infection.

Compound: Nc1nc(-c2ccccc2)nc2[nH]nc(Nc3ccccc3)c12 [Ref-2, 4-amino-3-(phenylamino)-6-phenylpyrazolo[3,4-d]pyrimidine]
- Binding to plasma protein [1]: 99.5%
- Release of plasma protein [1]: 61.0%
- Plasma stability [2]: 117.0%
- Stability in liver microsomes [3]: 32.0%
- AUC(0-t) [4]: 2350 ng·h/mL
- AUC(0-inf) [4]: 2730 ng·h/mL
- Cmax [4]: 1300 ng/mL
- MRT [4]: 2.14 h
- half-life [4]: 2.96 h
- Tmax [4]: 1 h
- LD50 at 72 h ([5]; mouse, in vivo, single peroral administration): 3930 mg/kg
- LD50 ([5]; single peroral administration): 78.6 mg/mouse
- Dead/Surviving 72 hrs after administration ([5]; single peroral dose 40 mg/mouse): 0/5
- Dead/Surviving 72 hrs after administration ([5]; single peroral dose 60 mg/mouse): 1/5
- Dead/Surviving 72 hrs after administration ([5]; single peroral dose 80 mg/mouse): 3/5
- Dead/Surviving 72 hrs after administration ([5]; single peroral dose 120 mg/mouse): 4/5

Compound: Nc1nc(-c2ccccc2)nc2[nH]nc(Nc3ccc(Cl)cc3)c12 [Ref-3, 4-amino-3-(4-chlorphenyl)amino-6-phenylpyrazolo[3,4-d]pyrimidine]
- AUC(0-t) [4]: 1090 ng·h/mL
- AUC(0-inf) [4]: 1090 ng·h/mL
- Cmax [4]: 424 ng/mL
- MRT [4]: 2.44 h
- half-life [4]: 1.47 h
- Tmax [4]: 0.5 h
- IC50 ([6]; read-out: IC50 Pleconaril-resistant HRV (n = 5), mean): 70 nM
- IC50 ([6]; read-out: IC50 Pleconaril-sensitive HRV (n = 45), mean): 18500 nM
- IC50 ([6]; read-out: IC50 all HRV (n = 50), mean): 16100 nM
- Number of sensitive HRV ([6]; of 50 examined serotypes): 23
- IC50 ([7]; mean over 19 pleconaril-sensitive isolates, read-out: IC50 Pleconaril-sensitive CVB3 (n = 19), mean): 710 nM
- IC50 ([7]; mean over all 20 clinical isolates, read-out: IC50 all CVB3 (n = 20), mean): 680 nM
- IC50 ([7]; the one pleconaril-resistant isolate, read-out: IC50 Pleconaril-resistant CVB3 (n = 1)): 130 nM
- Number of sensitive CVB3 ([7]; of 20 clinical isolates, CRCV-340 maximum tested concentration 13.5 μM): 20

- melting point: 262 to 263 °C
Compound: Nc1nc(-c2ccccc2)nc2[nH]nc(Nc3ccc(F)cc3)c12 [Ref-5, 4-amino-3-[(4-fluorophenyl)amino]-6-phenylpyrazolo[3,4-d]pyrimidine]

Compound: Cc1cc(CCCCCCCOc2ccc(C3=NCCO3)cc2)on1 [disoxaril]
- Bioavailability [8]: low bioavailability
- Metabolisation and excretion [9]: fast metabolisation and excretion

Compound: Cc1cc(CCCOc2c(C)cc(-c3noc(C(F)(F)F)n3)cc2C)on1 [pleconaril]
- Therapeutic effect (body weight, general condition, virus titre in heart and pancreas, histopathology) [10]: in contrast to the placebo and pleconaril CRCV-340 was effective
- Therapeutic effect (body weight, general condition, lethality) [11]: In contrast to the placebo and pleconaril CRCV-340 was effective
- Bioavailability [8]: very good oral bioavailability
